Key:
ST3Gal1 = target: T1, ST3Gal1 (Sus scrofa, UniProt Q02745); test: SPR (CM5 chip, immobilized purified ST3Gal1); type: binding
T1 construct: Δ45, N-terminal 6xHis-MBP fusion
T1 sequence (Q02745 46-343): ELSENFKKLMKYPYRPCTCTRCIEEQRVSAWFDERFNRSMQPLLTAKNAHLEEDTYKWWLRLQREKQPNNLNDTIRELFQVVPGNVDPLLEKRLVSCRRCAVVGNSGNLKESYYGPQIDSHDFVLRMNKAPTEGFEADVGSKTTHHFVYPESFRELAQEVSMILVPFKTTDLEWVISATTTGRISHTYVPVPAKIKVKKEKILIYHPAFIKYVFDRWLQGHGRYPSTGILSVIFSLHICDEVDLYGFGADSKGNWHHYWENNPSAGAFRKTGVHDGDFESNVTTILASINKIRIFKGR

ST6Gal1 = target: T2, ST6Gal1 (Homo sapiens, UniProt P15907); test: SPR (CM5 chip, immobilized purified ST6Gal1); type: binding
T2 construct: Δ131, 3xFLAG
T2 sequence (P15907 132-406): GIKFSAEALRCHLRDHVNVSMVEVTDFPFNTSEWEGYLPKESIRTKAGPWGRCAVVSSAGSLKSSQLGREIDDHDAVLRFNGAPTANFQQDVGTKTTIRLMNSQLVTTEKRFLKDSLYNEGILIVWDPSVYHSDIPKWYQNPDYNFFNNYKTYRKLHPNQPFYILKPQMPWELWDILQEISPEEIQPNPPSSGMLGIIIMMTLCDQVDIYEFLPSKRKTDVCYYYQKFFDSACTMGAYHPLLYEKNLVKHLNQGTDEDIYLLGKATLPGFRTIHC
From the text: SPR (CM5 chip, immobilized purified ST6Gal1) on ST6Gal1 | Pull-down and SPR analyses confirmed that Y-320 binds to ST6Gal1 with high affinity

A Kd (ST3Gal1) of 709 nM and a Kd (ST6Gal1) of 885 nM were found for `Cc1c(C(=O)Nc2ccc(N3CCC(N4CCOCC4)CC3)c(C#N)c2)cnn1-c1ccc(Cl)cc1` [Y-320] in this work.

From PMC12550625, “A Potent Oral Sialylation Inhibitor Augments the Immunotherapy in Pancreatic Ductal Adenocarcinoma” (ACS Central Science, 2025)
